Experimental data: ChEMBL document CHEMBL5050836, “Inhibitors of eya3-protein tyrosine phosphatase in dna damage repair signaling of pulmonary arterial hypertension” (2021)
Active and inactive are the calls of the source. The rule behind the calls is not given here.

Assays:
Liver = experiment: Hepatotoxicity in rats at 0.15 to 1.5 mg administered via instillation in to trachea; format: toxicity; details: rat, in vivo, inhaled_or_intranasal; dose 0.15-1.5 mg
Lung [1] = experiment: Protection against pulmonary hypertension in Sugen-Hypoxia (SuHx) rat model assessed as reduction in gamma-H2AX foci in lungs; format: functional, tissue-based
Lung [2] = experiment: Protection against pulmonary hypertension in Sugen-Hypoxia (SuHx) rat model assessed as reduction in 53BP1 foci in lungs; format: functional, tissue-based

## CCc1oc2ccccc2c1C(=O)c1ccc(O)cc1 [BENZARONE]
Liver
  Activity: Non-Toxic
Lung [1]
  Activity: Active
Lung [2]
  Activity: Active
